Measured values reported in the NIST ThermoML archive (doi:10.1021/je300799f).

Experiment: xn = mol fraction of the nth substance listed
Settings: 101 kPa, Liquid, Vibrating tube method

CCCC(=O)OC [methyl butanoate] + CCCCCCC
Settings	mass density [kg/m3]
288.15 K, x1 = 0.0478	695.54
288.15 K, x1 = 0.094	702.79
288.15 K, x1 = 0.1411	710.56
288.15 K, x1 = 0.2025	720.91
288.15 K, x1 = 0.2476	728.91
288.15 K, x1 = 0.2996	738.37
288.15 K, x1 = 0.3531	748.53
288.15 K, x1 = 0.4112	759.9
288.15 K, x1 = 0.4484	767.46
288.15 K, x1 = 0.5023	778.63
288.15 K, x1 = 0.5526	789.52
288.15 K, x1 = 0.5984	799.7
288.15 K, x1 = 0.6471	810.83
288.15 K, x1 = 0.7077	825.2
288.15 K, x1 = 0.7463	834.68
288.15 K, x1 = 0.798	847.73
288.15 K, x1 = 0.8912	872.29
288.15 K, x1 = 0.9493	888.46
288.15 K, x1 = 1	903.31
298.15 K, x1 = 0.0485	686.88
298.15 K, x1 = 0.0876	693
298.15 K, x1 = 0.1389	701.34
298.15 K, x1 = 0.2122	713.65
298.15 K, x1 = 0.2586	721.76
298.15 K, x1 = 0.302	729.67
298.15 K, x1 = 0.3571	739.98
298.15 K, x1 = 0.4019	748.57
298.15 K, x1 = 0.4492	758.07
298.15 K, x1 = 0.5017	768.87
298.15 K, x1 = 0.5573	780.67
298.15 K, x1 = 0.5952	789.01
298.15 K, x1 = 0.6466	800.69
298.15 K, x1 = 0.7063	814.61
298.15 K, x1 = 0.7424	823.41
298.15 K, x1 = 0.7993	837.66
298.15 K, x1 = 0.8623	853.85
298.15 K, x1 = 0.9015	864.37
298.15 K, x1 = 0.9507	878.23
298.15 K, x1 = 1	892.31
308.15 K, x1 = 0.063	680.36
308.15 K, x1 = 0.117	688.78
308.15 K, x1 = 0.187	700.22
308.15 K, x1 = 0.3025	720.34
308.15 K, x1 = 0.417	741.86
308.15 K, x1 = 0.5047	759.48
308.15 K, x1 = 0.5651	772.28
308.15 K, x1 = 0.5933	778.47
308.15 K, x1 = 0.6532	791.9
308.15 K, x1 = 0.7045	803.77
308.15 K, x1 = 0.7487	814.31
308.15 K, x1 = 0.7648	818.37
308.15 K, x1 = 0.789	824.36
308.15 K, x1 = 0.8514	840.37
308.15 K, x1 = 0.8818	848.32
308.15 K, x1 = 0.9257	860.13
308.15 K, x1 = 0.9603	869.83
308.15 K, x1 = 1	881.19
318.15 K, x1 = 0.0768	673.72
318.15 K, x1 = 0.089	675.62
318.15 K, x1 = 0.1535	685.7
318.15 K, x1 = 0.2117	695.29
318.15 K, x1 = 0.2567	702.97
318.15 K, x1 = 0.305	711.44
318.15 K, x1 = 0.3544	720.36
318.15 K, x1 = 0.4042	729.76
318.15 K, x1 = 0.4351	735.72
318.15 K, x1 = 0.5011	748.89
318.15 K, x1 = 0.5487	758.83
318.15 K, x1 = 0.5962	768.97
318.15 K, x1 = 0.6971	791.66
318.15 K, x1 = 0.7469	803.4
318.15 K, x1 = 0.7973	815.75
318.15 K, x1 = 0.8454	827.9
318.15 K, x1 = 0.8948	840.81
318.15 K, x1 = 0.9513	856.25
318.15 K, x1 = 1	870.06
328.15 K, x1 = 0.044	659.99
328.15 K, x1 = 0.0921	667.12
328.15 K, x1 = 0.1388	674.29
328.15 K, x1 = 0.189	682.37
328.15 K, x1 = 0.2611	694.33
328.15 K, x1 = 0.3006	701.19
328.15 K, x1 = 0.4098	721.06
328.15 K, x1 = 0.4532	729.42
328.15 K, x1 = 0.5031	739.32
328.15 K, x1 = 0.5522	749.41
328.15 K, x1 = 0.5979	759.1
328.15 K, x1 = 0.6473	769.85
328.15 K, x1 = 0.706	783.28
328.15 K, x1 = 0.7456	792.62
328.15 K, x1 = 0.7926	803.93
328.15 K, x1 = 0.86	820.85
328.15 K, x1 = 0.9028	832.08
328.15 K, x1 = 0.9508	845.05
328.15 K, x1 = 1	858.8

CCCC(=O)OC [methyl butanoate] + CCCCCCCCC
Settings	mass density [kg/m3]
288.15 K, x1 = 0.0544	727.14
288.15 K, x1 = 0.0804	729.99
288.15 K, x1 = 0.1647	739.66
288.15 K, x1 = 0.2172	746.06
288.15 K, x1 = 0.2378	748.63
288.15 K, x1 = 0.2963	756.43
288.15 K, x1 = 0.3419	762.85
288.15 K, x1 = 0.3986	771.19
288.15 K, x1 = 0.4425	778.04
288.15 K, x1 = 0.5007	787.63
288.15 K, x1 = 0.5488	796.09
288.15 K, x1 = 0.604	806.21
288.15 K, x1 = 0.6553	816.39
288.15 K, x1 = 0.6959	824.67
288.15 K, x1 = 0.7507	836.81
288.15 K, x1 = 0.8114	850.96
288.15 K, x1 = 0.8553	862.13
288.15 K, x1 = 0.8988	873.46
288.15 K, x1 = 0.9507	888.13
288.15 K, x1 = 1	903.31
298.15 K, x1 = 0.0495	718.76
298.15 K, x1 = 0.0998	724.04
298.15 K, x1 = 0.1729	732.49
298.15 K, x1 = 0.1935	734.88
298.15 K, x1 = 0.2473	741.54
298.15 K, x1 = 0.3035	748.92
298.15 K, x1 = 0.3558	756.23
298.15 K, x1 = 0.4462	769.69
298.15 K, x1 = 0.5497	786.99
298.15 K, x1 = 0.6465	805.02
298.15 K, x1 = 0.7509	826.86
298.15 K, x1 = 0.7772	832.78
298.15 K, x1 = 0.8038	839.14
298.15 K, x1 = 0.9052	864.6
298.15 K, x1 = 0.953	878.19
298.15 K, x1 = 1	892.31
308.15 K, x1 = 0.0554	711.45
308.15 K, x1 = 0.1002	716.1
308.15 K, x1 = 0.1653	723.29
308.15 K, x1 = 0.2108	728.63
308.15 K, x1 = 0.2545	734.04
308.15 K, x1 = 0.3082	740.93
308.15 K, x1 = 0.3598	748.08
308.15 K, x1 = 0.409	755.11
308.15 K, x1 = 0.4594	762.76
308.15 K, x1 = 0.4993	769.14
308.15 K, x1 = 0.5504	777.76
308.15 K, x1 = 0.6001	786.6
308.15 K, x1 = 0.6482	795.68
308.15 K, x1 = 0.6945	804.91
308.15 K, x1 = 0.7463	815.78
308.15 K, x1 = 0.7964	827.07
308.15 K, x1 = 0.8451	838.68
308.15 K, x1 = 0.8948	851.33
308.15 K, x1 = 0.9497	866.34
308.15 K, x1 = 1	881.19
318.15 K, x1 = 0.0234	700.32
318.15 K, x1 = 0.0731	705.17
318.15 K, x1 = 0.1033	708.28
318.15 K, x1 = 0.1552	713.83
318.15 K, x1 = 0.1993	718.91
318.15 K, x1 = 0.2571	725.77
318.15 K, x1 = 0.3123	732.79
318.15 K, x1 = 0.3568	738.79
318.15 K, x1 = 0.4135	746.74
318.15 K, x1 = 0.4555	753.07
318.15 K, x1 = 0.5093	761.51
318.15 K, x1 = 0.5565	769.3
318.15 K, x1 = 0.6043	777.7
318.15 K, x1 = 0.6544	787.04
318.15 K, x1 = 0.7067	797.4
318.15 K, x1 = 0.7541	807.31
318.15 K, x1 = 0.8037	818.4
318.15 K, x1 = 0.8594	831.69
318.15 K, x1 = 0.9068	843.76
318.15 K, x1 = 0.9511	855.91
318.15 K, x1 = 1	870.06
328.15 K, x1 = 0.0272	692.57
328.15 K, x1 = 0.0562	695.34
328.15 K, x1 = 0.078	697.49
328.15 K, x1 = 0.1041	700.12
328.15 K, x1 = 0.1502	704.97
328.15 K, x1 = 0.2023	710.73
328.15 K, x1 = 0.2654	718.16
328.15 K, x1 = 0.3073	723.36
328.15 K, x1 = 0.3624	730.61
328.15 K, x1 = 0.412	737.45
328.15 K, x1 = 0.4567	744
328.15 K, x1 = 0.5083	751.95
328.15 K, x1 = 0.5549	759.51
328.15 K, x1 = 0.6157	770.1
328.15 K, x1 = 0.6554	777.42
328.15 K, x1 = 0.7027	786.49
328.15 K, x1 = 0.749	795.99
328.15 K, x1 = 0.8511	819.04
328.15 K, x1 = 0.9051	832.64
328.15 K, x1 = 0.9506	844.76
328.15 K, x1 = 1	858.8
